# Reference: patent US12385839B2, “Use of protein in predicting drug properties” (priority 2021, dated 2025)
# Where two headings read alike, the source gives them in different places.
# Assays:
# [1] = target: T1, human serum albumin (HSA) (Homo sapiens, UniProt P02768); experiment: Fluorescence emission spectrum (quenching) of HSA with carbamate pesticides; format: binding; conditions: for Kq / Ksv / n (number of binding sites) / Kd / Ka (binding constant): pH 7.4; for Kd: read-out: Ka (binding constant); for R (binding distance): Förster energy transfer; for fluorescence of HSA quenched by pesticide: titration of pesticide; for ΔH^0 / ΔS^0: Van't Hoff, 296-310 K
# Procedure, shortened: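 Fluorescence quenching of HSA by carbamate pesticides was measured. HSA was held at 5×10^−7 M and pesticide was titrated from (0-105)×10^−7 M. Samples were preheated for 3 minutes, excited at 280 nm with 15 nm slits, and emission was recorded from 300-500 nm. Inner-filter effects were corrected. Binding site number n came from log[(F0−F)/F]=log Ka+nlog[Q].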
# [2] = target: T1, human serum albumin (HSA); experiment: Circular dichroism spectrum, secondary structure (α-helix content) of HSA; conditions: HSA 2×10^−6 M
# Procedure, shortened: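 CD spectra of HSA held at 2×10^−6 M with pesticide at (0-20)×10^−6 M, 1 mm path, after 2–5 min preheating. α-Helix content derived from mean residue ellipticity at 208 nm (585 residues).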
# [3] = cited from earlier work; for LD50: modelling table; for Toxicity: toxicity grade by LD50, trailing figure = number of pesticides in group
# T1 sequence (P02768 25-609): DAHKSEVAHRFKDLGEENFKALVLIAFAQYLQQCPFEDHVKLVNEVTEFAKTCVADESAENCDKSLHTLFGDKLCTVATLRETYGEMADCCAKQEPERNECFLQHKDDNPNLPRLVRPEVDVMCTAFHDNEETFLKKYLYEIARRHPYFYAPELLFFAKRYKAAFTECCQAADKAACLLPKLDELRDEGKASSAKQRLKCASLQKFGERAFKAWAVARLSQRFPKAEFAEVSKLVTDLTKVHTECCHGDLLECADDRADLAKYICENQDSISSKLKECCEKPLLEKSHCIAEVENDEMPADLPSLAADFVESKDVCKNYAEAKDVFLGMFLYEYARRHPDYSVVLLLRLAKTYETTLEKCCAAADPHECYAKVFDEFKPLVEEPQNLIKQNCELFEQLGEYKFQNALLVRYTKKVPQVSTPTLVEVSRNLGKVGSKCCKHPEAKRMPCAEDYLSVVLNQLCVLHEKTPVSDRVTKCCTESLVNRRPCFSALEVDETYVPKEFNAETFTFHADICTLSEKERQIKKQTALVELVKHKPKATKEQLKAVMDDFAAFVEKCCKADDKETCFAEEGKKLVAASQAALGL
Compound,"Ksv (37°) ([1]; 37°, modelling table)","ΔG(37°) ([1]; 37°, modelling table)",ΔG^0 ([1]; 296 K) [kcal/mol],Kq ([1]; 296 K),Ksv ([1]; 296 K),n (number of binding sites) ([1]; 296 K),ΔG^0 ([1]; 303 K) [kcal/mol],Kq ([1]; 303 K),Ksv ([1]; 303 K),n (number of binding sites) ([1]; 303 K),ΔG^0 ([1]; 310 K) [kcal/mol],R (binding distance) ([1]; 310 K) [nm],Kq ([1]; 310 K),Ksv ([1]; 310 K),n (number of binding sites) ([1]; 310 K),fluorescence of HSA quenched by pesticide ([1]; 310 K),ΔH^0 [1] [kcal/mol],ΔS^0 [1] [J · mol^−1 · K^−1],Binding distance/r ([1]; modelling table),Number of binding sites/n ([1]; modelling table),further results
"CNC(=O)Oc1cc(C)cc(C)c1 [XMC, 3,5-xylyl methylcarbamate]",48304.67460,−22.81,-4.4097,4.145 ± 0.187 10^12 M^−1s^−1,4.145 ± 0.187 10^4 M^−1,0.734 ± 0.005,-4.9309,4.362 ± 0.151 10^12 M^−1s^−1,4.362 ± 0.151 10^4 M^−1,0.779 ± 0.012,-5.4522,2.033,4.830 ± 0.108 10^12 M^−1s^−1,4.830 ± 0.108 10^4 M^−1,0.832 ± 0.006,quenched,17.634,311.582,2.033,0.8317,Kd ([1]; 296 K): 539 µM; Kd ([1]; 303 K): 294 µM; Kd ([1]; 310 K): 139 µM; α-helix contents ([2]; 5:1 (Pesticide:HSA)): 55.392%; α-helix contents ([2]; 10:1 (Pesticide:HSA)): 54.416%; LD50 [3]: 245 mg/kg; Toxicity [3]: Moderately
Trimethacarb,47778.50539,−19.26,-4.0289,3.043 ± 0.160 10^12 M^−1s^−1,3.043 ± 0.160 10^4 M^−1,0.694 ± 0.002,-4.3162,4.204 ± 0.100 10^12 M^−1s^−1,4.204 ± 0.100 10^4 M^−1,0.696 ± 0.005,-4.6037,2.954,4.778 ± 0.093 10^12 M^−1s^−1,4.778 ± 0.093 10^4 M^−1,0.713 ± 0.001,quenched,8.1233,171.775,2.954,0.713,"Ka (37°) ([1]; 37°, modelling table): 1782; Ka (binding constant) ([1]; 296 K): (9.546 ± 0.118) × 10^2 M^−1; Ka (binding constant) ([1]; 303 K): (1.268 ± 0.092) × 10^3 M^−1; Ka (binding constant) ([1]; 310 K): (1.782 ± 0.036) × 10^3 M^−1; α-helix contents ([2]; 5:1 (Pesticide:HSA)): 52.233%; α-helix contents ([2]; 10:1 (Pesticide:HSA)): 48.283%; LD50 [3]: 178 mg/kg; Toxicity [3]: Moderately"
